In article PMC7449215, “Caspofungin Weight-Based Dosing Supported by a Population Pharmacokinetic Model in Critically Ill Patients” (Antimicrobial Agents and Chemotherapy, 2020):

Assays:
[1] = doses of up to 200 mg daily for an extended period of time; cited from earlier work
[2] = two-compartment population pharmacokinetic model (Pmetrics NPAG) in critically ill ICU patients; type: in vivo, human; settings: 20 ICU patients
Protocol: This study included data from a prospective study in 20 adult critically ill patients admitted to an ICU with suspected invasive candidiasis and treated with caspofungin ([6]). For more details about the study population, see our previous publication ([6]).
All patients received a loading dose of 70 mg on the first day of treatment. The subsequent dose was 50 mg for patients weighing ≤80 kg, 70 mg for patients weighing >80 kg, and 35 mg and 50 mg, respectively, for patients with moderate hepatic impairment (Child-Pugh score of 7 to 9) ([8]). Caspofungin was administered as a 1-h infusion.
As the steady state for caspofungin is reached on the second day after the loading dose, blood sampling was performed on day 3 (range, 2 to 4) ([22]). […] The rationale for this target is described in detail in our previous publication ([6]). The sampling was performed before the administration and 1, 2, 3, 4, 6, 8, 12, and 24 h after the start of the caspofungin infusion. Caspofungin plasma concentrations were measured using a validated liquid chromatography-tandem mass spectrometry assay ([30]).
The pharmacokinetic modeling, probability of target attainment, and visual predictive checks were performed using the nonparametric adaptive grid program (NPAG) in Pmetrics (version 1.5.2) for R (version 3.6.1) (Laboratory of Applied Pharmacokinetics and Bioinformatics, Los Angeles, CA) ([16]).
The covariate selection was performed using the PMstep command of Pmetrics. Each covariate was tested in a linear regression analysis on pharmacokinetic parameters to see if there was a significant effect on AIC value (P < 0.05). […] The covariates, tested with a forward addition method, were weight, age, gender, concomitant administration of prednisolone/hydrocortisone, dialysis, aspartate aminotransferase (AST), alanine aminotransferase (ALT), gamma-glutamyl transpeptidase (GGT), bilirubin, albumin, C-reactive protein, leukocyte count, and simplified acute physiology score (SAPS 3).
The models were analyzed and compared using individual and population observed versus predicted goodness-of-fit plots, AIC, BIC, and −2 log likelihood. The prediction error was evaluated using bias (mean weighted prediction error) and imprecision (bias-adjusted mean weighted squared prediction error) for both the individual and population models. During the population modeling assay, error (standard deviation) and environmental noise were considered. For this, we used error polynomials in the following equation: standard deviation = C0 + C1 × observed concentration. The value 0.05 was used for C0 and 0.08 for C1. Gamma multiplicative and lambda additive error models were tested to estimate residual error ([12], [31]).

[3] = critically ill patients; cited from earlier work
Protocol: It has been shown in healthy adults that with increasing weight, both V and clearance (CL) increase ([17]). […] Other models have also included weight as a covariate and obtained similar results ([10], [18]). Furthermore, Nguyen et al. described that caspofungin exposure was influenced by albumin concentration and body weight ([19]). During our model development, albumin was also tested ...

[4] = cited from earlier work
Excerpt: This study has some limitations. […] As caspofungin is highly protein bound (∼97%), the extent of protein binding can change in ICU patients, and the measurement of unbound fractions may be useful; however, drug assessment can be difficult, as small absolute errors translate into large relative errors in highly protein-bound drugs ([26], [27]). Second, the PK/PD target for AUC is not well established in clinical trials, and the currently used targets are based on murine model ...

Structure (SMILES): CC[C@H](C)C[C@H](C)CCCCCCCCC(=O)N[C@H]1C[C@@H](O)[C@@H](NCCN)NC(=O)[C@@H]2[C@@H](O)CCN2C(=O)[C@H]([C@H](O)CCN)NC(=O)[C@H]([C@H](O)[C@@H](O)c2ccc(O)cc2)NC(=O)[C@@H]2C[C@@H](O)CN2C(=O)[C@H]([C@@H](C)O)NC1=O [caspofungin]
- tolerability [1]: good tolerability was observed, with no described dose-limiting toxicity
- Ke, elimination rate constant, mean ([2]; 1-h infusion, plasma LC-MS/MS, final two-compartment model): 0.09 h⁻¹
- V0, volume of distribution, median ([2]; final model, V = V0 · weight/78): 7.20 L/kg
- Ke, elimination rate constant, median ([2]; final two-compartment model): 0.08 h⁻¹
- kcp, rate constant central to peripheral compartment, mean ([2]; final two-compartment model): 0.44 h⁻¹
- kcp, rate constant central to peripheral compartment, median ([2]; final two-compartment model): 0.28 h⁻¹
- kpc, rate constant peripheral to central compartment, mean ([2]; final two-compartment model): 0.46 h⁻¹
- kpc, rate constant peripheral to central compartment, median ([2]; final two-compartment model): 0.34 h⁻¹
- CL [3]: 0.54 L/h
- V [3]: 7.03 L
- protein bound [4]: ~97%
